Where “and” joins values, the source holds several entries; their conditions need not be identical. Equal entries are not always repeated. Where two headings read alike, the source gives them in different places.
Tests used:
[1] = Cytotoxicity assay (MTT), human lymphocytic cell lines, pooled data; assay type: cell-based; details: H-9 and CEM inhibited by 50%, read-out: Mean CC50 (Human Cell Lines) ± SEM (no. of expts)
Experimental: (§1) Normal murine spleen cells were washed in HBSS, cultured at 2.5×10^6 or 5×10^6 cells per mL in RPMI 1640 (with Hepes) complete medium with 2 mM-L-glutamine, 1 mM sodium pyruvate, 0.05 mM β-mercaptoethanol, penicillin, streptomycin, and amphotericin B with 10% fetal calf serum and Concanavalin A (ConA) at 2.5 μg/mL in a 96-well microtiter plate. A range of diluted analogs were added to triplicate culture wells and the cells were incubated at 37° C. in 5% CO2. Wells containing cells, media and ConA were used as controls. Forty-eight hours post incubation, 20 μL of the vital dye MTT (3-[4,5-Dimethylthiazol-2-yl]-2,5-diphenyltetrazolium bromide; thiazolyl blue) at 5 mg/mL was added to each well and the cultures re-incubated for 4-6 hours. Following centrifugation, the supernatants were decanted and the stained cells were resuspended in 100 μL of 0.4% HCl acidified isopropanol. The optical densities of each well were read at 600 nm using a Cambridge Technologies series 700 microplate reader. The human lymphocytic cell lines CCRF-CEM (ATCC: HTB 176) and H-9 (ATCC: CCL 119) were subcultured from recently cultured cells grown in complete RPMI 1640 medium as described above but without the β-mercaptoethanol and ConA at 6.25×10^5 and 2×10^6 per mL in a 96 well culture plate. These cell numbers represented log phase and early stationary phase of the freshly cultured cells. As these cell lines rapidly reproduce without mitogenic stimulation, Con A was not used. A range of analogues or media alone was added in triplicate to the cultures and the cultures incubated, pulsed with MTT, harvested and their growth estimated as described above for the murine cultures. The CC50 or the concentration of drug which inhibited cell growth as estimated by MTT formazan production to 50% of that of untreated control cells was determined by linear interpolation for each lavendamycin analog.

HIV-RT = biological target: T1, HIV-RT (Human immunodeficiency virus type 1 group M subtype B, UniProt P04585); test: Checkerboard combination of lavendamycin analogs with AZT-triphosphate in HIV-RT enzyme assay (Chou and Talalay); assay type: biochemical
T1 construct: 1 unit/mL of HIV-RT (Worthington Biochemical Corp., Freehold, N.J.); purchased Worthington Biochemical Corp., Freehold, N.J
Experimental: The results were analyzed by the method of Chou and Talalay based on the median-effect principle and represented by combination indices (CI) determined for each of the two drug combinations (e.g., see: Chou, T. C.; Talalay, P. “Quantitative Analysis of Dose-Effect Relationships: The Combined Effects of Multiple Drugs or Enzyme Inhibitors,” Adv. Enzyme Regul., 1984, 22, 27-65; and Chou, J.; Chou, T. C. “Dose-Effect Analysis with Microcomputers: Quantitation of ED50, LD50, Synergism, Antagonism, Low-Dose Risk, Receptor-Ligand Binding and Enzyme Kinetics,” In: A computer Software for IBM-PC and Manual, Cambridge, UK, Elsevier-Biosoft, 1987). This method involves the plotting of dose-effect curves for each agent and for each of the different combinations of the agents. The slope of the median-effect plot, which signifies the shape of the dose-effect curve, and the x intercept of the plot, which signifies the potency of each compound alone and each combination, were then used for a computerized calculation of a combination index.
The assay procedure described below is adapted from Okada et al. (Okada, H.; Mukai, H.; Inouye, Y; Nakamura, S. “Biological Properties of Streptonigrin Derivatives II. Inhibition of Reverse Transcriptase Activity,” J. Antibiot., 1986, 39, 306-308). The lavendamycin analogs were initially dissolved in DMSO at a concentration of 1 mg/mL. Occasionally, mild sonication and heat were used to dissolve the less soluble compounds. The dissolved analogs were then serially diluted in distilled water to achieve concentrations in the final reaction mixture ranging from 0.5-15 μM. In addition to the lavendamycin analogs, the final reaction mixture contained 100 mM Tris-HCl (pH 8.0), 5 mM MgCl2, 5 mM dithiothreitol, 60 mM NaCl, 0.2 mM [^3H] thymidine triphosphate(5 μCi well), 4 μg/mL poly (rA)-oligo(dT)12-18 (Amersham Pharmacia Biotech, Piscataway, N.J.) and 1 unit/mL of HIV-RT (Worthington Biochemical Corp., Freehold, N.J.) in a total volume of 300 μL. For each assay, the reaction mixture containing 8× buffer, double distilled H2O, ^3HTTP, template-primer and HIV-RT was pre-mixed in a 15-mL sterile tube in quantities required for the particular experiment. After adding the enzyme, the reaction mixture was mixed and kept on ice. The inhibitors, either AZT(Moravek Biochemicals, Brea, Calif.), analogs or both were added to appropriate wells in a 24 well microtiter plate and ddH2O was added to each well to bring the volume of all test wells to 100 μL. Two hundred μL of the chilled reaction mixture was then added to each of the test wells, mixed, and incubated for 1 hr at 37° C. Several control wells with no inhibitors were included on each test plate. After stopping the reactions with 25 μL 0.1 M EDTA, triplicate samples of 15 μL from each test well were spotted on DE81 ion exchange filter paper squares (Whatman Paper, Maidstone, England). After drying, each filter was washed for 10 minutes three times with 5% TCA-NHPO4, three times with 0.6M NaCl-[…] Na Citrate, one time with ddH2O and one time with 95% ethanol. After drying the individual filter papers were added to 5 mL Scintiverse E (Fisher Scientific, Chicago, Ill.) scintillation fluid and the amount of 3H-TTP uptake measured as counts per minute on a Beckman liquid scintillation counter. […] The results were then analyzed using Calcusyn, a windows software program for dose effect analysis designed by T. -C. Chou and M. P. Hayball and published by Biosoft® (UK).

[2] = Cytotoxicity assay (MTT), normal murine spleen cells stimulated with concanavalin A; assay type: cell-based; details: normal mouse spleen stimulated with concanavalin A inhibited by 50%, read-out: Mean CC50 (Normal Mouse Spleen) ± SEM (no. of expts)
Experimental: as §1

[3] = human lymphocytic cell lines CCRF-CEM and H-9, pooled data
[4] = analogue 0.25 μM + AZT 0.007 μM, Trial 1
[5] = analogue 0.25 μM + AZT 0.007 μM, Trial 2
[6] = analogue 0.25 μM + AZT 0.01 μM, Trial 1
[7] = analogue 0.25 μM + AZT 0.01 μM, Trial 2
[8] = analogue 0.25 μM + AZT 0.02 μM, Trial 1
[9] = analogue 0.25 μM + AZT 0.02 μM, Trial 2
[10] = analogue 0.5 μM + AZT 0.007 μM, Trial 1
[11] = analogue 0.5 μM + AZT 0.007 μM, Trial 2
[12] = analogue 0.5 μM + AZT 0.01 μM, Trial 1
[13] = analogue 0.5 μM + AZT 0.01 μM, Trial 2
[14] = analogue 0.5 μM + AZT 0.02 μM, Trial 1
[15] = analogue 0.5 μM + AZT 0.02 μM, Trial 2
[16] = analogue 0.75 μM + AZT 0.007 μM, Trial 1
[17] = analogue 0.75 μM + AZT 0.007 μM, Trial 2
[18] = analogue 0.75 μM + AZT 0.01 μM, Trial 1
[19] = analogue 0.75 μM + AZT 0.01 μM, Trial 2
[20] = analogue 0.75 μM + AZT 0.02 μM, Trial 1
[21] = analogue 0.75 μM + AZT 0.02 μM, Trial 2
[22] = analogue 1.5 μM + AZT 0.007 μM, Trial 1
[23] = analogue 1.5 μM + AZT 0.007 μM, Trial 2
[24] = analogue 1.5 μM + AZT 0.01 μM, Trial 1
[25] = analogue 1.5 μM + AZT 0.01 μM, Trial 2
[26] = analogue 1.5 μM + AZT 0.02 μM, Trial 1
[27] = analogue 1.5 μM + AZT 0.02 μM, Trial 2
[28] = normal murine spleen cells stimulated with concanavalin A

| SMILES | CC50 at 48 h [1, 3] | Combination index (HIV-RT; [4]) | Combination index (HIV-RT; [5]) | Combination index (HIV-RT; [6]) | Combination index (HIV-RT; [7]) | Combination index (HIV-RT; [8]) | Combination index (HIV-RT; [9]) | Combination index (HIV-RT; [10]) | Combination index (HIV-RT; [11]) | Combination index (HIV-RT; [12]) | Combination index (HIV-RT; [13]) | Combination index (HIV-RT; [14]) | Combination index (HIV-RT; [15]) | Combination index (HIV-RT; [18]) | Combination index (HIV-RT; [19]) | Combination index (HIV-RT; [20]) | Combination index (HIV-RT; [22]) | Combination index (HIV-RT; [23]) | Combination index (HIV-RT; [24]) | Combination index (HIV-RT; [25]) | further results |
| --- | --- | --- | --- | --- | --- | --- | --- | --- | --- | --- | --- | --- | --- | --- | --- | --- | --- | --- | --- | --- | --- |
| CC(=O)NC1=CC(=O)c2ccc(-c3nc(C(N)=O)cc4c3[nH]c3ccccc34)nc2C1=O [Compound 16, 7-N-Acetyldemethyllavendamycin Amide] | 95 ± 45 µM | 0.82 | 0.80 | 0.85 | 1.18 | 0.67 | 0.75 | 0.54 | 0.65 | 0.87 | 0.70 | 0.58 | 0.60 | 1.0 | 1.20 | 1.10 | 0.66 | 0.67 | 1.0 | 1.0 | Combination index (HIV-RT; [16]): 1.50; Combination index (HIV-RT; [17]): 1.61; Combination index (HIV-RT; [21]): 1.10; Combination index (HIV-RT; [26]): 1.00; Combination index (HIV-RT; [27]): 1.00; CC50 at 48 h [2, 28]: 50 ± 7 µM |
| CC(=O)NC1=CC(=O)c2ccc(-c3nc(C(=O)O)cc4c3[nH]c3ccccc34)nc2C1=O [Compound 18, 7-N-Acetyldemethyllavendamycin] | 81 ± 35 µM | 0.39 | 0.37 | 0.44 | 0.45 | 0.59 | 0.60 | 0.40 | 0.42 | 0.51 | 0.50 | 0.97 | 0.98 | 0.59 | 0.57 | 0.95 | 1.00 | 0.94 | 0.90 | 0.82 | Combination index (HIV-RT): 0.66; Combination index (HIV-RT; [21]): 0.97; Combination index (HIV-RT; [26]): 2.00; Combination index (HIV-RT; [27]): 2.20; combined effect with AZT-TP (HIV-RT; analogue 1.5 μM together with AZT-TP 0.02 μM): antagonism; CC50 at 48 h [2, 28]: 47 ± 8.5 µM |
| CCCCCCCCOC(=O)c1cc2c([nH]c3ccccc32)c(-c2ccc3c(n2)C(=O)C(N)=CC3=O)n1 [Compound 20, Demethyllavendamycin n-Octyl Ester] |  | 0.65 | 0.61 | 0.77 | 0.77 | 0.97 | 1.00 | 0.62 | 0.61 | 0.60 | 0.61 | 0.86 | 0.88 | 0.64 | 0.63 | 0.61 | 0.83 | 0.83 | 0.70 | 0.69 | CC50 at 48 h [1]: 47 ± 14 µM; Combination index (HIV-RT): 0.68 and 0.66; Combination index (HIV-RT; [21]): 0.64; Combination index (HIV-RT; [26]): 0.64; Combination index (HIV-RT; [27]): 0.63; CC50 at 48 h [2]: 48 ± 10 µM |
| CC(=O)NC1=CC(=O)c2ccc(-c3nc(C(=O)OCCOP(=O)(O)O)cc4c3[nH]c3ccccc34)nc2C1=O [Compound 19] | 27 ± 3 µM |  |  |  |  |  |  |  |  |  |  |  |  | 0.64 | 1.04 |  | 0.49 | 0.81 | 0.69 | 0.69 | Combination index (HIV-RT; [16]): 0.47; Combination index (HIV-RT; [17]): 0.68; Combination index (HIV-RT; analogue 3 μM + AZT 0.007 μM, Trial 1): 0.49; Combination index (HIV-RT; analogue 3 μM + AZT 0.007 μM, Trial 2): 0.79; Combination index (HIV-RT; analogue 3 μM + AZT 0.01 μM, Trial 1): 0.28; Combination index (HIV-RT; analogue 3 μM + AZT 0.01 μM, Trial 2): 0.56; Combination index (HIV-RT; analogue 6 μM + AZT 0.007 μM, Trial 1): 0.32; Combination index (HIV-RT; analogue 6 μM + AZT 0.007 μM, Trial 2): 0.60; Combination index (HIV-RT; analogue 6 μM + AZT 0.01 μM, Trial 1): 0.28; Combination index (HIV-RT; analogue 6 μM + AZT 0.01 μM, Trial 2): 0.75; CC50 at 48 h [2, 28]: 29 ± 5 µM |
